Test [1] relates to transgenic tobacco plants expressing mutant HPPD SEQ ID NO: 122. The experiment in a line: spray test, herbicidal damage scoring. The test is classed as in vivo. Conditions: 7 days after treatment, 100=complete death, 0=no damage, one value per event. The method, then: DNA sequences that encode these polypeptides (optimized for tobacco or, optionally, codon optimized according to a target crop such as soybean) were prepared synthetically. Each sequence was designed to include a 5′ fusion with TMV omega 5′ leader sequence such that they are flanked at the 5′ end with XhoI and at the 3′ end with KpnI to facilitate direct cloning into a suitable binary vector for Agrobacterium-based plant transformation.
For example, a master plate of Agrobacterium tumefaciens containing the HPPD expressing the binary vector is used to inoculate 10 ml LB (L broth) containing 100 mg/l Rifampicin plus 50 mg/l Kanamycin using a single bacterial colony. This is incubated overnight at 28° C. shaking at 200 rpm. This entire overnight culture is used to inoculate a 50 ml volume of LB containing the same antibiotics. Again this is cultured overnight at 28° C. shaking at 200 rpm. The Agrobacterium cells are pelleted by centrifuging at 3000 rpm for 15 minutes and then resuspended in MS (Murashige and Skoog) medium containing 30 g/l sucrose, pH 5.9 to an OD […]=0.6. This suspension is dispensed in 25 ml aliquots into petri dishes.
(§1) Once rooted, plantlets are transferred from agar and potted into 50% peat, 50% John Innes Soil No. 3 or, for example, MetroMix® 380 soil (Sun Gro Horticulture, Bellevue, WA) with slow-release fertilizer in 3 inch round or 4 inch square pots and left regularly watered to establish for 8-12d in the glass house. Glass house conditions are about 24-27° C. day; 18-21° C. night and approximately a 14h (or longer in UK summer) photoperiod.
(§2) About 20-30 TO events are produced for a number of HPPD variant genes.
Single copy events amongst the Ti plant lines are identified by their 3:1 segregation ratio (with respect to kanamycin and/or herbicide) and by quantitative RT-PCR. Seed from the thus selected Ti tobacco (var. Samsun) lines are sown in 3 inch diameter pots containing 50% peat and 50% John Innes Soil No. 3. […] HPPD expression levels were monitored by Western analysis.
(§3) Tables 4.1-4.9 show the herbicidal damage scoring on transgenic tobacco plants 7 days after treatment. A score of 100=complete death and 0=no damage observed.

For test [2], the system named is HPPD variant ALOME V162 (SEQ ID NO: 126). The experiment in a line: coupled HGO assay. It is filed as biochemical, Alopecurus myosuroides. The method, then:
DNA sequences (SEQ ID NOs: 65-118, 128, 130, 131, and 133), synthesized for expression in E. coli, by GeneWiz (USA) to encode HPPD variants (SEQ ID NOs: 5-58, 122, 124, 125 and 127) derived from either Avena sativa (SEQ ID NOs: 122, 124), Alopecurus myosuroides (SEQ ID NO: 126) or Apera spica-venti (SEQ ID NOs: 123, 125) were transformed into E coli BL21 (DE3) (New England Biolabs) and grown in 0.5 ml Terrific broth +50 ug/ml Kanamycin media in a 96-deepwell block overnight (37° C., 900rpm). 25 ul of the overnight cultures were inoculated into fresh 96-deepwell block containing 1 ml Formedium Autoinduction Media (AIM). The AIM cultures were grown for 3h at 37° C. (900rpm) and then transferred to 20° C. overnight (900rpm) to allow protein expression. The overnight cultures were centrifuged and 500 ul of Cellytic B (Sigma Aldrich) was added to resuspend the cell pellets. The coupled HGO assay (Siehl et al, 2014) is used to generate IC50 values for the HPPD variants of interest.
(§4) E. coli BL21 (DE3) cells were transformed with a pET24a vector containing a C-terminally his-tagged Arabidopsis HGO gene, grown and induced overnight as described for the HPPD variants above. The cell pellet was resuspended in phosphate buffered saline at pH 7.4 containing 10% Glycerol, 1mm Tris[2-carboxyethyl] phosphine-HCl (TCEP) plus 30 mM Imidazole and lysed using lysozyme/benzonase. The extract was clarified by low speed centrifugation and purified in the same buffer down a 1 ml His Gravitrap column. The bound HGO was eluted in 0.25M imidazole and the fractions pooled and beaded into liquid nitrogen. All procedures apart from the centrifugation and beading steps were carried out under a nitrogen atmosphere.
(§5) The coupled HGO assay is carried out by adding 10 ul of HPPD extract to a 96-well plate and then adding 40 ul of reaction buffer (50 mM Bis Tris Propane, pH7.0, 25 mM sodium-L-ascorbate, 400μM mercaptoethanol, 50 μM Fe(II)SO4). The plates are left to incubate for 5 minutes on ice. […] 200 ul of HPP/HGO (197 μM hydroxyphenylpyruvic acid, 16 μl/ml Homogentisic Acid Oxidase in reaction buffer as described above) buffer is then added to the well and the reaction is regularly monitored (e.g. every 30 seconds-5 minutes) for absorbance at 330 nm for a given time period (e.g., for between 15-60 minutes). The data can then be used to calculate the IC50 value for each HPPD variant of interest.

Test [3] deals with HPPD variant AVESA V307 (SEQ ID NO: 35) (Avena sativa, UniProt A0ACD5V6K6, A327R/I340E/L359M/P271N/R214G/V218I/V260A). The experiment in a line: biochemical. The test is classed as biochemical. The method, then:
25 ul of the overnight cultures were inoculated into fresh 96-deepwell block containing 1 ml Formedium Autoinduction Media (AIM). The AIM cultures were grown for 3h at 37° C. (900rpm) and then transferred to 20° C. overnight (900rpm) to allow protein expression. The overnight cultures were centrifuged and 500 ul of Cellytic B (Sigma Aldrich) was added to resuspend the cell pellets. The coupled HGO assay (Siehl et al, 2014) is used to generate IC50 values for the HPPD variants of interest.
as §4, §5

The test system of another test is wild-type tobacco plants. As to the kind of experiment: spray test, herbicidal damage scoring. The test is classed as in vivo. Particulars: Table 4.1, 7 days after treatment, 100=complete death, 0=no damage, one value per plant/event. The method, then: as §1, §2, §3

“And” between values parts separate entries of the source, which are not always exact repeats. Identical values can stand only once. Like-named read-outs stand apart in the source and are kept apart here.

Chain of HPPD variant AVESA V307 (SEQ ID NO: 35) (A0ACD5V6K6 entry or part of it R214G/V218I/V260A/P271N/A327R/I340E/L359M): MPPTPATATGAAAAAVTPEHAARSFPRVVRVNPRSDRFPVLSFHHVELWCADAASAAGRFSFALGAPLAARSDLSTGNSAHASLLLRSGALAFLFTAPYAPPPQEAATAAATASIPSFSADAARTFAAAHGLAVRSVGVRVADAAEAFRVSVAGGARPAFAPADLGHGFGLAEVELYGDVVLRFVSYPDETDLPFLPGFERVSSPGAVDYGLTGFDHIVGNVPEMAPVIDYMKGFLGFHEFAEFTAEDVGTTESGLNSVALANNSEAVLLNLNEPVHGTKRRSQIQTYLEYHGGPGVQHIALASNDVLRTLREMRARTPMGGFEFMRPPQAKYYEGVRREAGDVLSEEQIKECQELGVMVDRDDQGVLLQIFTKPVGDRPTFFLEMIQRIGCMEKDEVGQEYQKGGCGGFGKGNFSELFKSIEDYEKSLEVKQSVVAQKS

In the case of `COc1ccc(-n2nc(C)cc(C(=O)C3C(=O)CCCC3=O)c2=O)cc1OC` [Herbicide C, dioxopyritrione], the “herbicidal damage scoring, Herbicide C 100 g/ha” value is 90 and 70 and 95 and 96 in test [1] (Table 3.1, plants expressing SEQ ID 122); 95 and 99 and 96 in the test with wild-type tobacco plants. The “herbicidal damage scoring, Herbicide C (200 g/ha)” value in test [1] (Table 4.4, SEQ ID NO: 122) was 99 and 95 and 97 and 98; in the test on wild-type tobacco plants, 95 and 97 and 98 and 96. Moreover, the IC50 (as a rule, the concentration at which inhibition is half-maximal) in test [2] was 0.25 µM; in test [3] (AVESA V307, SEQ ID NO: 35, read-out: IC50), under 0.19 µM.
As for `Cn1nnnc1NC(=O)c1ccc(C(F)(F)F)nc1-n1cncn1` [Herbicide D, N-(1-methyltetrazol-5-yl)-2-(1,2,4-triazol-1-yl)-6-(trifluoromethyl)pyridine-3-carboxamide], the “herbicidal damage scoring, Herbicide D (2000 g/ha)” value is 80 and 70 and 65 and 75 and 85 and 60 in test [1] (Table 4.4, SEQ ID NO: 122); 99 and 96 and 97 and 95 in the test on wild-type tobacco plants. The IC50 was found to be 10.5 µM in test [2] and 262 µM in test [3].
On to bicyclopyrone, for which the “herbicidal damage scoring, Bicyclopyrone (800 g/ha)” value in test [1] (Table 4.4, SEQ ID NO: 122) is 60 and 50 and 55 and 65 and 35 and 70 and 40; in the test on wild-type tobacco plants, 95. In test [2], this compound yielded an IC50 of 0.53 µM.
